Reference: the NIST ThermoML archive (doi:10.1007/s10765-015-1981-5)

Assay: xn = mol fraction of the nth substance listed
Conditions: Gas, Loschmidt cell combine with holographic interferometry

In the case of `[He]` [helium] + CCC, the binary diffusion coefficient (293.15 K, 100 kPa, x2 = 0.5) is reported as 3.9e-05 m2/s, the binary diffusion coefficient (293.15 K, 200 kPa, x2 = 0.5) is reported as 1.95e-05 m2/s and the binary diffusion coefficient (313.15 K, 100 kPa, x2 = 0.5) is reported as 4.36e-05 m2/s. It also gave a binary diffusion coefficient (313.15 K, 200 kPa, x2 = 0.5) of 2.18e-05 m2/s and a binary diffusion coefficient (333.15 K, 200 kPa, x2 = 0.5) of 2.4e-05 m2/s.
For `[He]` [helium] + N, the binary diffusion coefficient (293.15 K, 100 kPa, x1 = 0.5) was 7.36e-05 m2/s, the binary diffusion coefficient (293.15 K, 200 kPa, x1 = 0.5) was 3.7e-05 m2/s and the binary diffusion coefficient (293.15 K, 500 kPa, x1 = 0.5) was 1.46e-05 m2/s. It also gave a binary diffusion coefficient (293.15 K, 800 kPa, x1 = 0.5) of 8.96e-06 m2/s, a binary diffusion coefficient (313.15 K, 200 kPa, x1 = 0.5) of 4.1e-05 m2/s and a binary diffusion coefficient (313.15 K, 500 kPa, x1 = 0.5) of 1.65e-05 m2/s. For the same molecule, the binary diffusion coefficient (313.15 K, 800 kPa, x1 = 0.5) was 1.02e-05 m2/s, the binary diffusion coefficient (333.15 K, 800 kPa, x1 = 0.5) was 1.13e-05 m2/s and the binary diffusion coefficient (353.15 K, 800 kPa, x1 = 0.5) was 1.26e-05 m2/s.
In the case of `[Kr]` [krypton] + [He], the binary diffusion coefficient (293.15 K, 100 kPa, x1 = 0.5) is reported as 6.19e-05 m2/s, the binary diffusion coefficient (293.15 K, 200 kPa, x1 = 0.5) is reported as 3.12e-05 m2/s and the binary diffusion coefficient (293.15 K, 500 kPa, x1 = 0.5) is reported as 1.25e-05 m2/s. The binary diffusion coefficient (293.15 K, 1000 kPa, x1 = 0.5) was 6.18e-06 m2/s, the binary diffusion coefficient (313.15 K, 100 kPa, x1 = 0.5) was 7.04e-05 m2/s and the binary diffusion coefficient (313.15 K, 200 kPa, x1 = 0.5) was 3.48e-05 m2/s. It also gave a binary diffusion coefficient (313.15 K, 500 kPa, x1 = 0.5) of 1.34e-05 m2/s, a binary diffusion coefficient (313.15 K, 1000 kPa, x1 = 0.5) of 6.94e-06 m2/s and a binary diffusion coefficient (333.15 K, 200 kPa, x1 = 0.5) of 3.84e-05 m2/s. The binary diffusion coefficient (333.15 K, 500 kPa, x1 = 0.5) was 1.55e-05 m2/s, the binary diffusion coefficient (333.15 K, 1000 kPa, x1 = 0.5) was 7.7e-06 m2/s and the binary diffusion coefficient (353.15 K, 200 kPa, x1 = 0.5) was 4.25e-05 m2/s. For the same molecule, the binary diffusion coefficient (353.15 K, 500 kPa, x1 = 0.5) was 1.71e-05 m2/s and the binary diffusion coefficient (353.15 K, 1000 kPa, x1 = 0.5) was 8.54e-06 m2/s.
With `[N-]=[N+]=O` [nitrous oxide] + N#N the binary diffusion coefficient (293.15 K, 100 kPa, x2 = 0.5) was 1.53e-05 m2/s, the binary diffusion coefficient (293.15 K, 200 kPa, x2 = 0.5) was 7.9e-06 m2/s and the binary diffusion coefficient (293.15 K, 500 kPa, x2 = 0.5) was 3.14e-06 m2/s. It also gave a binary diffusion coefficient (293.15 K, 1000 kPa, x2 = 0.5) of 1.56e-06 m2/s, a binary diffusion coefficient (313.15 K, 100 kPa, x2 = 0.5) of 1.76e-05 m2/s and a binary diffusion coefficient (313.15 K, 200 kPa, x2 = 0.5) of 8.98e-06 m2/s. For the same molecule, the binary diffusion coefficient (313.15 K, 500 kPa, x2 = 0.5) was 3.55e-06 m2/s, the binary diffusion coefficient (313.15 K, 1000 kPa, x2 = 0.5) was 1.77e-06 m2/s and the binary diffusion coefficient (333.15 K, 500 kPa, x2 = 0.5) was 4.28e-06 m2/s. The binary diffusion coefficient (333.15 K, 1000 kPa, x2 = 0.5) was 1.98e-06 m2/s and the binary diffusion coefficient (353.15 K, 1000 kPa, x2 = 0.5) was 2.24e-06 m2/s.
Work on `[Xe]` [xenon] + [Ar] yielded a binary diffusion coefficient (293.15 K, 100 kPa, x2 = 0.5) of 3.12e-05 m2/s, a binary diffusion coefficient (293.15 K, 200 kPa, x2 = 0.5) of 1.56e-05 m2/s and a binary diffusion coefficient (293.15 K, 500 kPa, x2 = 0.5) of 6.29e-06 m2/s. It also gave a binary diffusion coefficient (293.15 K, 1000 kPa, x2 = 0.5) of 3.12e-06 m2/s, a binary diffusion coefficient (313.15 K, 100 kPa, x2 = 0.5) of 3.5e-05 m2/s and a binary diffusion coefficient (313.15 K, 200 kPa, x2 = 0.5) of 1.75e-05 m2/s. It also gave a binary diffusion coefficient (313.15 K, 500 kPa, x2 = 0.5) of 7.02e-06 m2/s, a binary diffusion coefficient (313.15 K, 1000 kPa, x2 = 0.5) of 3.48e-06 m2/s and a binary diffusion coefficient (333.15 K, 100 kPa, x2 = 0.5) of 3.88e-05 m2/s. The binary diffusion coefficient (333.15 K, 200 kPa, x2 = 0.5) was 1.94e-05 m2/s, the binary diffusion coefficient (333.15 K, 500 kPa, x2 = 0.5) was 7.76e-06 m2/s and the binary diffusion coefficient (333.15 K, 1000 kPa, x2 = 0.5) was 3.88e-06 m2/s.
